These results are taken from EPA's ToxValDB 9.5 (doi:10.2903/j.efsa.2008.175r).

Converted amounts (≈) assume the structure as drawn.

The subject of one data set is Colinus virginianus. Conditions: acute; oral; mortality.
In another data set the test system is Rattus norvegicus. Conditions: for NOAEL: reproduction developmental, reproduction.
The subject of a further data set is Coturnix coturnix. The settings on record: reproduction developmental.
The subject of the next data set is Anas platyrhynchos. Conditions: for LD50: oral, mortality.
The subject of another data set is Bibionidae. Conditions: chronic/long-term.
The next data set has as its system Canidae. The settings on record: oral, Dog Other, organ weight.
Another data set concerns Daphnia magna. Conditions: chronic/long-term; duration: 21 days; reproduction.
The next data set concerns Folsomia candida. The settings on record: chronic/long-term; duration: 4 weeks.
For a further data set, the system named is Oncorhynchus mykiss. The settings on record: acute; duration: 96 hours; mortality.
A further data set deals with Pimephales promelas. Conditions: chronic/long-term; duration: 30 days.
For another data set, the system named is Plant. Conditions: not reported; seedling emergence.
The subject of another data set is Typhlodromus pyri. In words: LR50; higher = less toxic. The settings on record: not reported; mortality.

On to `NC(Cc1ncn[nH]1)C(=O)O` (configuration not stated) [1,2,4-Triazole-3-alanine], for which the LD50 with Colinus virginianus is greater than 1340 mg/kg-day; with Rattus norvegicus (acute, oral, mortality) it was greater than 5000 mg/kg-day. Moreover, the NOAEL in the data set with Rattus norvegicus stood at 100 mg/kg-day.

`c1nc[nH]n1` [1H-1,2,4-Triazole] gave an NOEL with Coturnix coturnix greater than 316 mg/kg-day.

For the compound `CCCC(Cn1cncn1)c1ccc(Cl)cc1Cl` (configuration not stated) [Penconazole], the LD50 was greater than 1590 mg/kg-day in the data set on Anas platyrhynchos (acute, unspecified); greater than 1840 mg/kg-day in the data set on Anas platyrhynchos (short-term, feed); 971 mg/kg-day in the data set on Oryctolagus sp. (acute, oral, mortality). This compound showed an NOEL in the data set on Anas platyrhynchos (reproductive) of 28.6 mg/kg-day. Besides, the NOEC with Bibionidae is 25.2 mg/kg; with Bibionidae (duration: 28 days) it was 0.8 mg/L; in the data set with Daphnia magna it was 0.06 mg/L; with Folsomia candida, 98.8 mg/kg; in the data set with Pimephales promelas it was 0.32 mg/L; with Tagia sp. (chronic/long-term, duration: 56 days), greater than 0.34 mg/kg. The NOAEL was 3 mg/kg-day in the data set on Canidae (chronic, duration: 1 years); 3 mg/kg-day in the data set with Canidae (subchronic, duration: 90 days); 50 mg/kg-day in the data set on Oryctolagus sp. (developmental, development); 20 mg/kg-day with Rattus norvegicus. Also, the LC50 in the data set with Oncorhynchus mykiss was 1.13 µg/mL (≈ 3.98 µM); in the data set with Tagia sp. (acute, duration: 14 days, mortality), greater than 663 mg/kg. Also, the LEL in the data set with Plant turned out to be 30 g/ha. For the same compound, in the data set with Typhlodromus pyri, the LR50 amounted to 100 g/ha.

One may read the NOAEL as the highest dose or exposure tested at which no adverse effect was seen.
